Data as given in patent publication US12599596B2, “Anti-tumor pharmaceutical composition based on immune checkpoint blockade and use thereof” (Shanghai Hui Tian Jin Ze Biotech Co., Ltd., priority 2023, dated 2026).
Counter-ions that a name gives are not always drawn.

How the values were obtained:
[1] = test system: MC38 colorectal cancer cells; assay: MC38 subcutaneous tumor model in C57BL/6 mice, Embodiment 2; type: in vivo; conditions: for Tumor volume: CBD 100 mg/kg, PAR 10 mg/kg, vitamin E 50 mg/kg, thymosin 2 mg/kg
Method: • 1. MC38 colorectal cancer cells were inoculated into 6-week-old female C57BL/6 mice (1×10^6 cells/mouse) to establish a subcutaneous tumor model. After the tumor volume reached 50 mm^3, the mice were grouped and administered according to the following pharmaceutical combinations: (1) control group (no administration), (2) anti-PD-1 ([…]/time) group, (3) anti-CTLA4 ([…]/time) group, (4) CBD (100 mg/kg) group, (5) CBD (100 mg/kg)+anti-CTLA4 ([…]/time) group, (6) PAR (10 mg/kg) group, (7) PAR (10 mg/kg)+anti-CTLA4 ([…]) group, (8) CBD (100 mg/kg)+PAR (10 mg/kg) group, (9) vitamin E(a-tocopherol) (50 mg/kg)+thymosin (2 mg/kg) group, (10) CBD (100 mg/kg)+vitamin E(α-tocopherol) (50 mg/kg)+thymosin (2 mg/kg) group, (11) PAR (10 mg/kg)+vitamin E(α-tocopherol) (50 mg/kg)+thymosin (2 mg/kg), (12) PAR (10 mg/kg)+CBD (100 mg/kg)+vitamin E(α-tocopherol) (50 mg/kg)+thymosin (2 mg/kg) group, (13) CBD (100 mg/kg)+vitamin E(α-tocopherol) (50 mg/kg)+thymosin (2 mg/kg)+anti-CTLA4 ([…]/time) group, (14) PAR (10 mg/kg)+vitamin E(α-tocopherol) (50 mg/kg)+thymosin (2 mg/kg)+anti-CTLA4 ([…]) group, and (15) CBD (100 mg/kg)+PAR (10 mg/kg)+vitamin E(α-tocopherol) (50 mg/kg)+thymosin (2 mg/kg)+anti-CTLA4 ([…]/time) group. The tumor weight and volume, and body weight of the mice were monitored once every 2 days. The tumor volume was calculated as follows: tumor volume (mm^3)=0.5×(length)x(width)^2. The mice were sacrificed 14 days after drug administration, and the tumors were dissected.
The dissolving mode of the pharmaceutical composition was as follows: the pharmaceutical composition was dissolved in 10% DMSO+corn oil, the mice were gavaged with the pharmaceutical composition at 100 pl/mouse, and the mice in the control group were injected with the same volume of the solvent. • 2. MC38 colorectal cancer cells were inoculated into 6-week-old female nude mice (1×10^6 cells/mouse) to establish a subcutaneous tumor model. After the tumor volume reached 50 mm^3, the mice were grouped and administered according to the following pharmaceutical combinations: (1) control group, (2) CBD (100 mg/kg)+vitamin E(α-tocopherol) (50 mg/kg)+thymosin (2 mg/kg) group, (3) PAR (10 mg/kg)+vitamin E(α-tocopherol) (50 mg/kg)+thymosin (2 mg/kg) group, and (4) PAR (10 mg/kg)+CBD (100 mg/kg)+vitamin E(α-tocopherol) (50 mg/kg)+thymosin (2 mg/kg) group. The tumor weight and volume, and the body weight of the mice were monitored once every 2 days. The tumor volume was calculated as follows: tumor volume (mm^3)=0.5×(length)x(width)^2. The mice were sacrificed 14 days after drug administration, and the tumors were dissected. (II) Experimental Results 1.

PD-L1 in tumor cells = assay: Expression of PD-L1 in tumor cells with paroxetine hydrochloride; type: cell-based; conditions: no method or data given
MC38 colon cancer cells = assay: MC38 subcutaneous tumor model in C57BL/6 mice, Embodiment 5; type: in vivo; conditions: for Tumor volume: CBD 100 mg/kg, PAR 5 mg/kg, vitamin E 50 mg/kg; for therapeutic / tumor inhibition effect in words: normal mice, Embodiment 5, comparison between groups
Method: MC38 colon cancer cells were inoculated into 6-week-old female C57BL/6 mice (1×10^6 cells/mouse) to establish a subcutaneous tumor model. After the tumor volume reached 50 mm^3, the mice were grouped and administered with the following pharmaceutical combinations: (1) control group (no drug administration), (2) anti-PD-1 ([…] per time) group, (3) vitamin E(α-tocopherol) (50 mg/kg) group, (4) CBD (100 mg/kg) group, (5) CBD (100 mg/kg)+vitamin E(α-tocopherol) (50 mg/kg) group, (6) PAR (5 mg/kg) group, (7) PAR (5 mg/kg)+vitamin E(α-tocopherol) (50 mg/kg) group, (8) CBD (100 mg/kg)+PAR (5 mg/kg) group, and (9) PAR (5 mg/kg)+CBD (100 mg/kg)+vitamin E(α-tocopherol) (50 mg/kg) group.
The tumor weight, tumor volume, and mouse body weight were monitored once every 2 days. The tumor volume was calculated as follows: tumor volume (mm^3)=0.5×(length)×(width)^2. The mice were sacrificed 14 days after drug administration, and the tumors were dissected.
The dissolving mode of the pharmaceutical composition was as follows: the pharmaceutical composition was dissolved in 10% DMSO+corn oil, the mice were gavaged with the pharmaceutical composition at 100 μl/mice, and the mice in the control group were injected with the same volume of the solvent.

Row | Compound | Tumor volume ([1]; Day 0) [mm^3] | Tumor volume ([1]; Day 2) [mm^3] | Tumor volume ([1]; Day 4) [mm^3] | Tumor volume ([1]; Day 6) [mm^3] | Tumor volume ([1]; Day 8) [mm^3] | Tumor volume ([1]; Day 10) [mm^3] | Tumor volume ([1]; Day 12) [mm^3] | Tumor volume ([1]; Day 14) [mm^3] | Tumor volume ([1]; Day 16) [mm^3] | therapeutic / tumor inhibition effect in words ([1]; normal mice, Embodiment 2, comparison between groups) | expression of PD-L1 in tumor cells (PD-L1 in tumor cells) | Tumor volume (MC38 colon cancer cells; Day 0) [mm^3] | Tumor volume (MC38 colon cancer cells; Day 4) [mm^3] | Tumor volume (MC38 colon cancer cells; Day 6) [mm^3] | Tumor volume (MC38 colon cancer cells; Day 8) [mm^3] | Tumor volume (MC38 colon cancer cells; Day 10) [mm^3] | Tumor volume (MC38 colon cancer cells; Day 12) [mm^3] | Tumor volume (MC38 colon cancer cells; Day 14) [mm^3] | Tumor volume (MC38 colon cancer cells; Day 16) [mm^3] | therapeutic / tumor inhibition effect in words (MC38 colon cancer cells)
1 | Fc1ccc([C@@H]2CCNC[C@H]2COc2ccc3c(c2)OCO3)cc1 [PAR, paroxetine hydrochloride] | 0 | 43.63 | 68.09 | 83.54 | 177.63 | 263.45 | 393.48 | 510.89 | 608.61 | equivalent therapeutic effects | reduces the expression of PD-L1 | 0 | 44.74 | 61.50 | 85.83 | 136.25 | 176.62 | 262.06 | 302.90 | equivalent therapeutic effects
2 | Cc1c(C)c2c(c(C)c1O)CC[C@@](C)(CCC[C@H](C)CCC[C@H](C)CCCC(C)C)O2 [VE, a-tocopherol] |  |  |  |  |  |  |  |  |  |  |  | 0 | 58.77 | 124.89 | 191.75 | 284.59 | 459.67 | 532.81 | 624.47 | no significant therapeutic effect
